The target of assay [1] is T1, cystathionine-γ-lyase (CSE) (Homo sapiens, UniProt P32929).
T1 construct: made in house; host or cells: E. coli
The assay is described as follows: Selectivity assay, H2S-producing activity of CSE. The class given is biochemical. The conditions noted are these: at 100 µM. Here is the method:
(§1) To evaluate the selectivity of Compounds 53 and 56, their effects on the activities of two other PLP-dependent enzymes, human cystathionine-β-synthase (CBS) and cystathionine-γ-lyase (CSE), were determined using a H2S-producing assay. Human CBS and CSE were expressed and purified in E. coli with a purity exceeding 90%, as confirmed by SDS-PAGE (Figures S4A and S5A). Subsequently, the H2S-producing activities of CBS and CSE were assessed in the presence of different concentrations of Compounds 53 and 56. A widely used CBS inhibitor, AOAA, and a specific CSE inhibitor, PAG, were used as positive controls (Figures S4B and S5B).
(§2) The H2S-producing activity of CBS was measured as previously described. The reaction mixture (200 μL) contained 50 mM of Hepes buffer (pH 7.4), 2 mM of homocysteine, 10 μM of PLP, 0.4 mM of lead nitrate, and 5 μg of CBS protein. It was preincubated at 37 °C for 3 min, and the reaction was initiated by the addition of 2 mM of cysteine. The reaction was monitored in a multifunctional microplate reader at 37 °C for 10 min. An extinction coefficient of 5500 M^−1 cm^−1 at 390 nm was used to calculate the lead sulfide concentration. The method used to determine CSE activity in the H2S-producing assay was identical to the CBS assay, except that 1 mM of cysteine was used as the sole substrate. […]

Assay [2] concerns the target T2, human NFS1 (Homo sapiens, UniProt Q9Y697).
T2 construct: His tag (N); made in house; host or cells: E. coli BL21(DE3)
The assay is described as follows: NFS1 inhibition assay (H2S-producing, methylene blue). It counts as biochemical. As for the experimental part: The 42 candidate compounds were tested for their inhibitory effects on human NFS1 using an in vitro H2S-producing assay. […] Subsequently, the effects of the selected compounds (100 µM) on human NFS1 activity were evaluated.
The activity of NFS1 was determined using a methylene blue assay as described previously, with some modifications. Briefly, reaction mixtures (200 μL) containing 50 mM of Tris-HCl (pH 8.0), 10 μM of PLP, 1 mM of DTT, and 10 μg of NFS1 were preincubated at 37 °C for 3 min. The reaction was then initiated by adding 1 mM of cysteine. After 15 min of incubation at 37 °C, the reaction was quenched by adding 25 μL of 20 mM N,N-dimethyl-p-phenylenediamine in 7.2 M of HCl and 25 μL of 30 mM FeCl3 in 1.2 M of HCl. Subsequently, the reaction mixtures were incubated for another 15 min at 37 °C, followed by centrifugation at 12,000 rpm for 10 minutes to remove the precipitates. The absorbance of the supernatant was measured at 670 nm. A reaction mixture without the substrate cysteine was used as the negative control. The H2S concentration was calculated based on a standard curve prepared using various concentrations of sodium sulfide (Na2S).
For the NFS1 inhibition assays, all test compounds were dissolved in dimethyl sulfoxide (DMSO) to prepare 10 mM stock solutions, which were stored at −80 °C. The stock solutions were diluted to the appropriate concentrations with 50 mM of Tris-HCl (pH 8.0) as required for the experiments. A reaction mixture containing DMSO but no test compounds was used as a negative control. The dose-dependent effects of the inhibitors on NFS1 activity were determined using the methylene blue assay described above. The IC50 values of the inhibitors were calculated by adding different concentrations of the inhibitors to the enzyme reaction mixtures.

Assay [3] addresses T3, human cystathionine-β-synthase (CBS) (Homo sapiens, UniProt P35520).
T3 construct: made in house; host or cells: E. coli
T3 sequence (P35520 1-551): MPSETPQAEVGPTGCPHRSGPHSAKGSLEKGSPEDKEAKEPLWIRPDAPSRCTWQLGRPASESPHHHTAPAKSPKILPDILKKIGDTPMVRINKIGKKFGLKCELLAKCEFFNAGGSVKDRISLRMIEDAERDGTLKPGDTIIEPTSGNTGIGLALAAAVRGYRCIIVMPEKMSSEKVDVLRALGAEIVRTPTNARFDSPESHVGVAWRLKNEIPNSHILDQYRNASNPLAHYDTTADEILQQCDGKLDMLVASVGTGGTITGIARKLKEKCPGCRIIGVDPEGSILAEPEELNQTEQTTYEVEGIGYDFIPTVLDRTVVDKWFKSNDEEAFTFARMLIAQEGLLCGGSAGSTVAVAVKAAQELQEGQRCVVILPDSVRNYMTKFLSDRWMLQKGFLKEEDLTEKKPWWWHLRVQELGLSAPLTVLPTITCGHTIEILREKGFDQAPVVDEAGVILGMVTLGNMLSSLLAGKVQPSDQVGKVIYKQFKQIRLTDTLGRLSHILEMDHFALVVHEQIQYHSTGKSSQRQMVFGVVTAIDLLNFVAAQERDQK
Kind of assay: Selectivity assay, H2S-producing activity of CBS. It counts as biochemical. The following applies: at 100 µM. Here is the method: as §1, §2

Assay [4] has as its system aconitase (ACO). Kind of assay: Aconitase activity in A549 cells. The class given is cell-based, human. The conditions noted are these: 50 µM. Here is the method: The activity of succinate dehydrogenase (SDH) in cells was determined using an SDH activity assay kit (Solarbio, Beijing, China) according to the manufacturer’s instructions. The optical density at 600 nm (OD600) was measured using a multifunctional microplate reader in 96-well plates. One unit of SDH activity was defined as the amount of enzyme catalyzing the consumption of 1 nmol of 2,6-dichlorophenol indophenol per minute at 37 °C [43]. The activity of aconitase (ACO) was measured as previously described, with some modifications. The cells were washed three times with pre-cooled PBS and lysed with lysis buffer containing 50 mM of Tris-HCl (pH 8.0), 0.2% Triton X-100, 0.6 mM of MnCl2, 5 mM of citrate, and 1 mM of PMSF. The aconitase activity was measured by monitoring the formation of cis-aconitate from isocitrate at 240 nm in 50 mM of Tris-HCl (pH 8.0) containing 20 mM of DL-trisodium isocitrate at 37 °C. An extinction coefficient of 3600 M^−1 cm^−1 at 240 nm was used to calculate the cis-aconitate concentration. One unit of ACO activity was defined as the amount of enzyme catalyzing the generation of 1 nmol of cis-aconitate per minute at 37 °C.

T2 sequence (Q9Y697 56-457): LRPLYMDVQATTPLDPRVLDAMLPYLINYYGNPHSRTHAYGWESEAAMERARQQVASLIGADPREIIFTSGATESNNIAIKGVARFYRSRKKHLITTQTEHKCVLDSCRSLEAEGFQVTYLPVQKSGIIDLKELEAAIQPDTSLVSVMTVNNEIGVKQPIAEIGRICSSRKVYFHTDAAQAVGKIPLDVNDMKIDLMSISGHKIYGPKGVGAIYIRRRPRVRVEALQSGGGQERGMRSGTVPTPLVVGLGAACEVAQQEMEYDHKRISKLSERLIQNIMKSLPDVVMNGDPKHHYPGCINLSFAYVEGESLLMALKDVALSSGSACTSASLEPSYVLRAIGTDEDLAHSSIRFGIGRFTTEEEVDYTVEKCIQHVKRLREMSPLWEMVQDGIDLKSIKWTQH
T1 sequence (P32929 whole entry): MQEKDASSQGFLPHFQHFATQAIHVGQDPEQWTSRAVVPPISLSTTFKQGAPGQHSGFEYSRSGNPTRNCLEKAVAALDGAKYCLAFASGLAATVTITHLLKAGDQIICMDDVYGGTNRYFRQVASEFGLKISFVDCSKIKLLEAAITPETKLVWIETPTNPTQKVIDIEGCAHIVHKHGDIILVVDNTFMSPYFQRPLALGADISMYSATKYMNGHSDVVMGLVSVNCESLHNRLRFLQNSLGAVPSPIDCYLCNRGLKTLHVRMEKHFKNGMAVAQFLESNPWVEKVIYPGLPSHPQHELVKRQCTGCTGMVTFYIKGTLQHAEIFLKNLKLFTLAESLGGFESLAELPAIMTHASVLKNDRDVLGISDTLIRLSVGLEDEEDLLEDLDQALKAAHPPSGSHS

Take `COc1cc(/C=N/NC(=O)COc2ccc(Cl)cc2Cl)ccc1O` [Compound 53]: in assay [1], the “inhibitory effect on CSE” value is recorded as “no significant inhibitory effects”. In assay [2], this molecule had an IC50 of 40.5 ± 3.85 µM. The Ki in assay [2] was 6.4 ± 0.48 µM. The Vmax came out at 144.2 ± 2.81 nmol/min/mg in assay [2] (inhibitor 5 μM); 143.3 ± 4.06 nmol/min/mg in assay [2] (inhibitor 10 μM); 144.1 ± 4.88 nmol/min/mg in assay [2] (inhibitor 20 μM); 143.5 ± 4.31 nmol/min/mg in assay [2] (inhibitor 50 μM); 143.8 ± 8.75 nmol/min/mg in assay [2] (inhibitor 100 μM). Further, the inhibition at 50 µM in assay [2] (read-out: inhibition of NFS1 activity) lay in the range of 40 to 50%. For the same molecule, the “Inhibition Type” value in assay [2] (versus substrate L-cysteine) is listed as “competitive inhibitors”. Besides, the “inhibitory effect on CBS” value in assay [3] is on record as “no significant inhibitory effects”. In assay [4], the “ACO activity compared to the control group” value was 51.3%.

The term IC50 denotes the midpoint of a concentration-inhibition curve. A high value points to a need for much substance. As a reminder, the Ki is the dissociation constant of the complex between target and ligand, obtained from inhibition or displacement. As usually defined, the Vmax is the rate approached at saturating substrate. What is called inhibition is how much of the control response was suppressed.

Values taken from publication PMC11942905, “Identification of a Selective Inhibitor of Human NFS1, a Cysteine Desulfurase Involved in Fe-S Cluster Assembly, via Structure-Based Virtual Screening” (International Journal of Molecular Sciences, 2025).
